Reference: ChEMBL document CHEMBL1201862, “PubChem BioAssay data set” (2004)
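Method: 48-hour compound exposure of cells in 96-well plates, five concentrations, linear interpolation of endpoints. Abbreviation: GI50, concentration required for 50% inhibition of growth.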 Activity calls are given as the source filed them. No stated cut-off is given here; in the data, active = GI50 up to about 1.1 µM and inactive = higher.

Columns and labels:
Test in all cases: growth of human tumour cells (NCI), 48 h
COLO 205 = tested on: COLO 205
HT-29 = tested on: HT-29
SK-MEL-28 = tested on: SK-MEL-28
K562 = tested on: K562
SR = tested on: SR
786-0 = tested on: 786-0
BT-549 = tested on: BT-549
OVCAR-3 = tested on: OVCAR-3
SNB-75 = tested on: SNB-75
ACHN = tested on: ACHN
HL-60 = tested on: HL-60
MCF7 = tested on: MCF7
SW-620 = tested on: SW-620
OVCAR-8 = tested on: OVCAR-8
MDA-MB-231 = tested on: MDA-MB-231
HOP-62 = tested on: HOP-62
A549 = tested on: A549
MDA-MB-435 = tested on: MDA-MB-435
RXF 393 = tested on: RXF 393

Measured: GI50

c1ccc2c(c1)nnn2C1CCCCO1 (stereo not drawn)
inactive: COLO 205 > 100 µM | HT-29 > 100 µM | SK-MEL-28 > 100 µM | K562 > 100 µM | SR > 100 µM | 786-0 > 100 µM | BT-549 > 100 µM | OVCAR-3 > 100 µM | SNB-75 > 100 µM | ACHN > 100 µM | HL-60 > 100 µM | MCF7 > 100 µM | SW-620 > 100 µM | OVCAR-8 > 100 µM | MDA-MB-231 > 100 µM | HOP-62 > 100 µM | A549 > 100 µM | MDA-MB-435 > 100 µM | RXF 393 > 100 µM

CC1C(=NO)C(C)C(c2ccccc2)N(N=O)C1c1ccccc1 (stereo not drawn)
inactive: COLO 205 17.3 µM | HT-29 17.4 µM | SK-MEL-28 16.7 µM | K562 32.7 µM | SR 15.5 µM | 786-0 19.6 µM | BT-549 22.9 µM | OVCAR-3 25.2 µM | SNB-75 25.1 µM | ACHN 20.2 µM | HL-60 25 µM | MCF7 37.9 µM | SW-620 21.8 µM | OVCAR-8 18 µM | MDA-MB-231 16.1 µM | HOP-62 19.1 µM | A549 17.8 µM | MDA-MB-435 21.3 µM | RXF 393 17.1 µM

C[N+](C)(N)CCC[N+](C)(C)N
inactive: COLO 205 > 100 µM | HT-29 > 100 µM | SK-MEL-28 > 100 µM | K562 > 100 µM | SR > 100 µM | 786-0 > 100 µM | BT-549 > 100 µM | OVCAR-3 > 100 µM | SNB-75 > 100 µM | ACHN > 100 µM | HL-60 > 100 µM | MCF7 > 100 µM | SW-620 > 100 µM | OVCAR-8 > 100 µM | MDA-MB-231 > 100 µM | HOP-62 > 100 µM | A549 > 100 µM | MDA-MB-435 > 100 µM | RXF 393 > 100 µM

COc1ccc(C2=C(Cl)C(=O)N(c3ccc(OC)cc3OC)C(=O)C2(Cl)Cl)cc1
inactive: COLO 205 17.9 µM | HT-29 18.1 µM | SK-MEL-28 17 µM | K562 19.8 µM | SR 4.09 µM | 786-0 15.6 µM | BT-549 18.8 µM | OVCAR-3 12.5 µM | SNB-75 22.9 µM | ACHN 15.7 µM | HL-60 25.2 µM | MCF7 21 µM | SW-620 14.8 µM | OVCAR-8 19.5 µM | MDA-MB-231 7.62 µM | HOP-62 18.5 µM | A549 > 100 µM | MDA-MB-435 16.9 µM | RXF 393 17.9 µM

CCCCc1ccc(Nc2nc(SC)c3[nH]cnc3n2)cc1
inactive: COLO 205 > 91.2 µM | HT-29 15.8 µM | SK-MEL-28 > 100 µM | K562 3.61 µM | SR 2.01 µM | 786-0 16.4 µM | BT-549 > 100 µM | OVCAR-3 > 55 µM | SNB-75 > 100 µM | ACHN 12.7 µM | HL-60 3.43 µM | MCF7 > 24.4 µM | SW-620 24.5 µM | OVCAR-8 30.2 µM | MDA-MB-231 84.3 µM | HOP-62 10.2 µM | A549 > 100 µM | MDA-MB-435 5.33 µM | RXF 393 28.2 µM

COc1ccc(C2C3=C(COC3=O)OC(C)(C)Oc3cc4c(cc32)OCO4)cc1OC (stereo not drawn)
inactive: COLO 205 20.9 µM | HT-29 39.4 µM | SK-MEL-28 53.2 µM | K562 30.8 µM | SR 29.2 µM | 786-0 41.9 µM | BT-549 32.3 µM | OVCAR-3 33.2 µM | SNB-75 13.2 µM | ACHN 51.5 µM | HL-60 29.2 µM | MCF7 40.1 µM | SW-620 33.3 µM | OVCAR-8 46.1 µM | MDA-MB-231 33.8 µM | HOP-62 63.5 µM | A549 36.8 µM | MDA-MB-435 17.3 µM | RXF 393 31.5 µM

N#Cc1cc2c(n(C3OC(CO)C(O)C(O)C3O)c1=S)CCCCC2 (stereo not drawn)
inactive: COLO 205 > 100 µM | HT-29 > 100 µM | SK-MEL-28 > 100 µM | K562 > 100 µM | SR > 100 µM | 786-0 > 100 µM | BT-549 > 100 µM | OVCAR-3 > 100 µM | SNB-75 > 100 µM | ACHN > 100 µM | HL-60 > 100 µM | MCF7 > 100 µM | OVCAR-8 > 100 µM | MDA-MB-231 > 100 µM | HOP-62 > 100 µM | A549 > 100 µM | MDA-MB-435 > 100 µM | RXF 393 > 100 µM

COC(=O)C(C)(NC(=O)C(CC(=O)OC(C)(C)C)NC(=O)OC(C)(C)C)c1ccccc1 (stereo not drawn)
inactive: COLO 205 > 100 µM | HT-29 > 100 µM | SK-MEL-28 > 100 µM | K562 > 100 µM | SR 73.5 µM | 786-0 > 100 µM | BT-549 > 100 µM | OVCAR-3 49.8 µM | SNB-75 8.13 µM | ACHN > 100 µM | HL-60 81.7 µM | MCF7 62.1 µM | SW-620 > 100 µM | OVCAR-8 > 100 µM | MDA-MB-231 > 100 µM | HOP-62 > 100 µM | A549 > 100 µM | MDA-MB-435 > 100 µM | RXF 393 > 100 µM

CC(C)(C)OC(=O)CCCCCNC(=O)CCCCCNC(=O)CCC(CN(CC(=O)OCc1ccccc1)CC(=O)OCc1ccccc1)N(CC(=O)OCc1ccccc1)CC(=O)OCc1ccccc1 (stereo not drawn)
inactive: COLO 205 > 100 µM | HT-29 > 100 µM | SK-MEL-28 > 100 µM | K562 25.2 µM | SR 20.5 µM | 786-0 > 100 µM | BT-549 > 100 µM | OVCAR-3 > 100 µM | SNB-75 20.2 µM | ACHN > 100 µM | HL-60 61.1 µM | MCF7 > 100 µM | SW-620 > 100 µM | OVCAR-8 > 100 µM | MDA-MB-231 > 100 µM | HOP-62 > 100 µM | A549 > 100 µM | MDA-MB-435 > 100 µM | RXF 393 > 100 µM

N/N=C(/CC(O)(C(F)(F)F)C(F)(F)F)c1ccccc1
inactive: COLO 205 > 10 µM | HT-29 > 10 µM | SK-MEL-28 > 10 µM | K562 > 10 µM | SR > 10 µM | 786-0 > 10 µM | BT-549 > 10 µM | OVCAR-3 7.4 µM | SNB-75 > 10 µM | ACHN > 10 µM | HL-60 > 10 µM | MCF7 > 10 µM | SW-620 > 10 µM | OVCAR-8 > 10 µM | MDA-MB-231 > 10 µM | HOP-62 > 10 µM | A549 > 10 µM | MDA-MB-435 > 10 µM | RXF 393 > 10 µM

CCOc1cc2c(cc1OC(C)=O)C(=O)CC[C@H]1C3CC[C@H](OC(C)=O)[C@@]3(C)CC[C@H]21 (stereo partly drawn)
inactive: COLO 205 > 100 µM | HT-29 > 100 µM | SK-MEL-28 > 100 µM | K562 > 100 µM | SR > 100 µM | 786-0 > 100 µM | BT-549 > 100 µM | OVCAR-3 > 100 µM | SNB-75 > 100 µM | ACHN > 100 µM | HL-60 > 100 µM | MCF7 > 100 µM | SW-620 > 100 µM | OVCAR-8 > 100 µM | MDA-MB-231 > 100 µM | HOP-62 > 100 µM | A549 > 100 µM | MDA-MB-435 > 100 µM | RXF 393 > 100 µM

O=c1oc2ccccc2n1CCN1CCCCC1
inactive: COLO 205 > 100 µM | HT-29 > 100 µM | SK-MEL-28 > 100 µM | K562 > 100 µM | SR > 100 µM | 786-0 > 100 µM | BT-549 > 100 µM | OVCAR-3 > 100 µM | SNB-75 > 100 µM | ACHN > 100 µM | HL-60 > 100 µM | MCF7 > 100 µM | SW-620 > 100 µM | OVCAR-8 > 100 µM | MDA-MB-231 > 100 µM | HOP-62 > 100 µM | MDA-MB-435 > 100 µM | RXF 393 > 100 µM

CC[C@]12C=CCN3CCC4(c5cc(/N=N/c6ccc([N+](=O)[O-])cc6)c(OC)cc5N(C)[C@H]4[C@@](O)(C(=O)OC)[C@@H]1OC(C)=O)[C@@H]32 (stereo partly drawn)
inactive: COLO 205 4.63 µM | HT-29 10.4 µM | SK-MEL-28 11.8 µM | K562 6.32 µM | SR 9.71 µM | 786-0 11.8 µM | BT-549 72.4 µM | OVCAR-3 4.53 µM | SNB-75 9.48 µM | ACHN 15 µM | HL-60 7.31 µM | MCF7 11.6 µM | SW-620 2.56 µM | OVCAR-8 7.46 µM | MDA-MB-231 9.59 µM | HOP-62 13.6 µM | A549 15.3 µM | MDA-MB-435 11.7 µM | RXF 393 12.5 µM

COc1ccc(N[C@H](C[S+]([O-])c2ccc(C)cc2)C(F)(F)F)cc1 (stereo partly drawn)
inactive: COLO 205 > 100 µM | HT-29 > 100 µM | SK-MEL-28 > 100 µM | K562 > 100 µM | SR > 100 µM | 786-0 > 100 µM | BT-549 > 100 µM | OVCAR-3 > 100 µM | SNB-75 > 100 µM | ACHN > 100 µM | HL-60 > 100 µM | MCF7 > 100 µM | SW-620 > 100 µM | OVCAR-8 > 100 µM | MDA-MB-231 > 100 µM | A549 > 100 µM | MDA-MB-435 > 100 µM | RXF 393 > 100 µM
